The test system of one assay is Slc12a8 mRNA expression. Kind of assay: Slc12a8 mRNA expression by quantitative RT-PCR in cells and ex vivo small intestine explants. The class given is cell-based, mouse. The settings on record: FK866 plus NMN; primary hepatocytes, NIH3T3 fibroblasts (24 h), jejunum and ileum explants (4 h). As for the experimental part:
Cell culture and ex vivo small intestine explant culture. […] For Slc12a8 mRNA expression analysis, 2.5×10^5 cells per well were incubated in 6-well plates with DMEM with 1% FBS containing 0.1% DMSO or 100 nM FK866 or 100 nM FK866 plus 100 μM NMN for 24 h. Small intestines from 3-month old B6 male mice were cut into three segments with duodenum/jejunum/ileum length ratios of 1:3:2 (Wang, H. H., et al., Hepatology 45, 998-1006, 2007). […] Cellular and tissue RNA samples were analyzed by quantitative RT-PCR, as described previously (Stein, L. R. & Imai, S., EMBO J., 33, 1321-1340, 2014).
The amounts of adenosine produced were determined by HPLC. […] Silencing efficiencies were evaluated by quantitative RT-PCR.
FIG. 2 illustrates that Slc12a8 is highly expressed in the small intestine and pancreas and moderately in the liver and white adipose tissue of B6 male mice at 3 months of age (n=3 mice). […] Cells were treated with these compounds for 24 h (n=4 mice for hepatocytes treated with DMSO and FK866, and n=3 mice for hepatocytes treated with FK866 and NMN; n=6 for NIH3T3 cells; analyzed using ANOVA with Tukey's test). FIG. 5 illustrates surface and intracellular Slc12a8 protein expression levels were measured by flow cytometry analysis in NIH3T3 cells treated with FK866 or FK866 plus NMN for 48h. […]

The next assay has as its target T1, Slc12a8 (Mus musculus, UniProt Q8VI23).
T1 construct: NIH3T3 cells were transfected with 5 μg of pCXN2 carrying the full-length Slc12a8 cDNA (Slc12a8-OE); expressed in transfected cells
T1 sequence (Q8VI23 1-705): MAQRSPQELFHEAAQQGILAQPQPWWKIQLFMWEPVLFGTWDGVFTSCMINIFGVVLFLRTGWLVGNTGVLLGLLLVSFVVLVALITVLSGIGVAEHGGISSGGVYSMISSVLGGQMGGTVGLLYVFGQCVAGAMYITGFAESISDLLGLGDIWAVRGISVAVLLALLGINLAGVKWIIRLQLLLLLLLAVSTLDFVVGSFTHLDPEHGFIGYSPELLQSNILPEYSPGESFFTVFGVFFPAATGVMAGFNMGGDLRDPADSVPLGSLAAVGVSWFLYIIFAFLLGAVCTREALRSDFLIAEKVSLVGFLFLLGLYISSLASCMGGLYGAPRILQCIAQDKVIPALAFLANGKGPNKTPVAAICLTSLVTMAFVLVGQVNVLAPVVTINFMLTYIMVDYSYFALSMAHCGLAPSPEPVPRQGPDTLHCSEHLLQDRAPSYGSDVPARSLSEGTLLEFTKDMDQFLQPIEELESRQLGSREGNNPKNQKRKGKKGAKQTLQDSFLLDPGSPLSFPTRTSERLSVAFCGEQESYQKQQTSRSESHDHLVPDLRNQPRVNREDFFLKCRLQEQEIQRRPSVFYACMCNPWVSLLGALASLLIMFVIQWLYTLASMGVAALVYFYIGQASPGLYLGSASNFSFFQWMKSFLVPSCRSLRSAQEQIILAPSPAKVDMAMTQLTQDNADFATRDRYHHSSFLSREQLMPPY
Briefly: Radiolabeled NMN uptake in Slc12a8-OE and control NIH3T3 cells. The class given is cell-based. To be noted: Slc12a8-OE NIH3T3 cells, 4 min, 37° C., control background subtracted. As for the experimental part:
NMN uptake analyses with radiolabeled NMN. Control and Slc12a8-OE NIH3T3 cells were harvested by centrifugation (400×g, 5 min), washed once in HBSS, and incubated at 37° C. in HBSS [pH 7.5] (5×10^6 cells/ml) containing 100 nM 3H-β-Nicotinamide mononucleotide (9 Ci/mmol; Moravek Biochemicals, CA) and unlabeled NMN to make the final concentration 25 μM. At the designated time points (1, 3, 5 and 10 minutes), aliquots of the cells (100 μl) were collected and placed in 1.5-ml microcentrifuge tubes containing silicone-mineral oil (density, 1.015; Sigma-Aldrich) on the top of 2 M potassium hydroxide solution, followed by centrifugation at 16,000×g for 30s. Cells were separated from the buffer and pelleted through the silicone-mineral oil layer. The radioactivity in these cell pellets was determined by a liquid scintillation counter. For calculating Km and Vmax, the same conditions were used as described above, but with various total concentrations of NMN, ranging from 1 μM to 100 μM. At the 4-min time point, 100 μl of cell suspension was collected and pelleted in the same way described above. The radioactivity in cell pellets was determined by a liquid scintillation counter. The radioactivity measured in control NIH3T3 cells was subtracted to calculate Slc12a8-specific NMN uptake in Slc12a8-OE NIH3T3 cells.
Uptake of NMN was measured as described in methods under “NMN uptake analyses with radiolabeled NMN” using 25 μM ^3H-NMN at 37° C. in control and Slc12a8-OE NIH3T3 cells over 10 min in Hanks' buffer [ph7.5] with Mg2+ and Ca2+ (n=12; analyzed by ANOVA with Sidak's test). […] This Km is qualitatively consistent with a detected range of NMN concentrations in mouse plasma and erythrocytes (Revollo, J. R. et al., Cell Metab., 6, 363-375, 2007; Ramsey, K. M., et al., Science, 324, 651-654, 2009; Yamada, K., et al., Anal. Biochem., 352, 282-285, 2006).

The test system of a further assay is NIH3T3 cells. Kind of assay: Intracellular NAD+ levels in control and Slc12a8-OE NIH3T3 cells. The class given is cell-based, mouse. The settings on record: Slc12a8-OE cells, additional 1-hr incubation with 100 μM NMN after inhibitor cocktail. The source says: NAD+ and NMN measurements by HPLC.

The values below come from US12337010B2, “Compositions and methods of treatment using nicotinamide mononucleotide” (Washington University, priority 2017, dated 2025).

Each structure is given as a SMILES string.

As usually defined, the Km is the concentration of substrate that gives half-maximal velocity. The Vmax is the top rate of the reaction or transport when substrate is in excess. As to `NC(=O)c1ccc[n+]([C@@H]2O[C@H](COP(=O)([O-])O)[C@@H](O)[C@H]2O)c1` [NMN, nicotinamide mononucleotide], in the assay on Slc12a8 mRNA expression, the “Slc12a8 expression induced by FK866” value is listed as “suppressed”. Also, on Slc12a8, the Michaelis constant (Km) came to 34.1 ± 8.3 µM and the maximum rate (Vmax) amounted to 11.5 ± 1.2 pmol/min/mg. The “intracellular NAD+ levels” value in the assay on NIH3T3 cells is recorded as “restore NAD+ levels to the original levels”.
